The record followed here is patent US10537558B2 (Bantam Pharmaceutical, LLC, priority 2015, dated 2020).

Molecules are shown by their SMILES.

The assay has as its system BJAB cells. Briefly: BJAB cell proliferation (Cell Titer Glo). The assay is classed as cell-based. To be noted: Homo sapiens, read-out: EC50. The essentials:
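BJAB cells exposed to serially diluted compounds (0.1% DMSO final) for about 72 h at 37 °C. Proliferation read by Cell Titer Glo luminescence as percent of untreated controls; EC50 from non-linear regression of dose-response data.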
Consider `Cc1nn(-c2nc(-c3ccc(Cl)c(Cl)c3)c(SC(C)C)s2)c(C(=O)O)c1-c1ccc2cc[nH]c2c1` [Compound 107, 1-(4-(3,4-dichlorophenyl)-5-(isopropylthio)thiazol-2-yl)-4-(1H-indol-6-yl)-3-methyl-1H-pyrazole-5-carboxylic acid], for which the EC50 is 25 to 50 µM.
The value for `Cc1nn(-c2nc(-c3ccc(Cl)c(Cl)c3)c(SC(C)C)s2)c(C(=O)O)c1-c1cccc([N+](=O)[O-])c1` [Compound 108, 1-(4-(3,4-dichlorophenyl)-5-(isopropylthio)thiazol-2-yl)-3-methyl-4-(3-nitrophenyl)-1H-pyrazole-5-carboxylic Acid] was 5 to 10 µM.
The value for `Cc1nn(-c2nc(-c3ccc(Cl)c(Cl)c3)c(SC(C)C)s2)c(C(=O)O)c1-c1cn[nH]c1` [Compound 109, 2-(4-(3,4-dichlorophenyl)-5-(isopropylthio)thiazol-2-yl)-5-methyl-4,4′-bi(2H-pyrazole)-3-carboxylic acid] was 25 to 50 µM.
The value for `Cc1nn(-c2nc(-c3ccc(Cl)c(Cl)c3)c(SC(C)C)s2)c(C(=O)O)c1-c1c[nH]c2ccccc12` [Compound 110, 1-(4-(3,4-dichlorophenyl)-5-(isopropylthio)thiazol-2-yl)-4-(1H-indol-3-yl)-3-methyl-1H-pyrazole-5-carboxylic acid] was 10 to 25 µM; that for `Cc1nn(-c2nc(-c3ccc(Cl)c(Cl)c3)c(SC(C)C)s2)c(C(=O)O)c1-c1ccccc1Cl` [Compound 111, 4-(2-chlorophenyl)-1-(4-(3,4-dichlorophenyl)-5-(isopropylthio)thiazol-2-yl)-3-methyl-1H-pyrazole-5-carboxylic acid] was 10 to 25 µM; that for `Cc1nn(-c2nc(-c3ccc(Cl)c(Cl)c3)c(SC(C)C)s2)c(C(=O)O)c1-c1cccc(Cl)c1` [Compound 112, 4-(3-chlorophenyl)-1-(4-(3,4-dichlorophenyl)-5-(isopropylthio)thiazol-2-yl)-3-methyl-1H-pyrazole-5-carboxylic Acid] was 1 to 5 µM.
For the compound `Cc1nn(-c2nc(-c3ccc(Cl)c(Cl)c3)c(SC(C)C)s2)c(C(=O)O)c1-c1ccc(Cl)cc1` [Compound 113, 4-(4-chlorophenyl)-1-(4-(3,4-dichlorophenyl)-5-(isopropylthio)thiazol-2-yl)-3-methyl-1H-pyrazole-5-carboxylic acid], the 50% effective concentration (EC50) is 10 to 25 µM.
The figure for `COc1ccccc1-c1c(C)nn(-c2nc(-c3ccc(Cl)c(Cl)c3)c(SC(C)C)s2)c1C(=O)O` [Compound 114, 1-(4-(3,4-dichlorophenyl)-5-(isopropylthio)thiazol-2-yl)-4-(2-methoxyphenyl)-3-methyl-1H-pyrazole-5-carboxylic acid] is 10 to 25 µM; for `COc1cccc(-c2c(C)nn(-c3nc(-c4ccc(Cl)c(Cl)c4)c(SC(C)C)s3)c2C(=O)O)c1` [Compound 115, 1-(4-(3,4-dichlorophenyl)-5-(isopropylthio)thiazol-2-yl)-4-(3-methoxyphenyl)-3-methyl-1H-pyrazole-5-carboxylic Acid] it is 1 to 5 µM; for `COc1ccc(-c2c(C)nn(-c3nc(-c4ccc(Cl)c(Cl)c4)c(SC(C)C)s3)c2C(=O)O)cc1` [Compound 116, 1-(4-(3,4-dichlorophenyl)-5-(isopropylthio)thiazol-2-yl)-4-(4-methoxyphenyl)-3-methyl-1H-pyrazole-5-carboxylic acid] it is 10 to 25 µM.
The value for `Cc1ccccc1-c1c(C)nn(-c2nc(-c3ccc(Cl)c(Cl)c3)c(SC(C)C)s2)c1C(=O)O` [Compound 117, 1-(4-(3,4-dichlorophenyl)-5-(isopropylthio)thiazol-2-yl)-3-methyl-4-o-tolyl-1H-pyrazole-5-carboxylic acid] was 5 to 10 µM; that for `Cc1cccc(-c2c(C)nn(-c3nc(-c4ccc(Cl)c(Cl)c4)c(SC(C)C)s3)c2C(=O)O)c1` [Compound 118, 1-(4-(3,4-dichlorophenyl)-5-(isopropylthio)thiazol-2-yl)-3-methyl-4-m-tolyl-1H-pyrazole-5-carboxylic Acid] was 1 to 5 µM; that for `Cc1ccc(-c2c(C)nn(-c3nc(-c4ccc(Cl)c(Cl)c4)c(SC(C)C)s3)c2C(=O)O)cc1` [Compound 119, 1-(4-(3,4-dichlorophenyl)-5-(isopropylthio)thiazol-2-yl)-3-methyl-4-p-tolyl-1H-pyrazole-5-carboxylic acid] was 10 to 25 µM.
The figure for `CC(=O)Nc1ccc(-c2c(C)nn(-c3nc(-c4ccc(Cl)c(Cl)c4)c(SC(C)C)s3)c2C(=O)O)cc1` [Compound 120, 4-(4-acetamidophenyl)-1-(4-(3,4-dichlorophenyl)-5-(isopropylthio)thiazol-2-yl)-3-methyl-1H-pyrazole-5-carboxylic acid] is more than 50 µM; for `Cc1nn(-c2nc(-c3ccc(Cl)c(Cl)c3)c(SC(C)C)s2)c(C(=O)O)c1Cc1ccccc1NS(C)(=O)=O` [Compound 121, 1-(4-(3,4-dichlorophenyl)-5-(isopropylthio)thiazol-2-yl)-3-methyl-4-(2-(methylsulfonamido)benzyl)-1H-pyrazole-5-carboxylic acid] it is more than 50 µM; for `Cc1nn(-c2nc(-c3ccc(Cl)c(Cl)c3)c(SC(C)C)s2)c(C(=O)O)c1Cc1ccccc1NS(=O)(=O)N(C)C` [Compound 122, 1-(4-(3,4-dichlorophenyl)-5-(isopropylthio)thiazol-2-yl)-4-(2-(N,N-dimethylsulfamoylamino)benzyl)-3-methyl-1H-pyrazole-5-carboxylic acid] it is 10 to 25 µM.
Regarding `Cc1nn(-c2nc(-c3ccc(Cl)c(Cl)c3)c(SC(C)C)s2)c(C(=O)O)c1-c1ccc(N)cc1` [Compound 123, 4-(4-aminophenyl)-1-(4-(3,4-dichlorophenyl)-5-(isopropylthio)thiazol-2-yl)-3-methyl-1H-pyrazole-5-carboxylic acid], the EC50 was in the range of 25 to 50 µM.
The figure for `Cc1nn(-c2nc(-c3ccc(Cl)c(Cl)c3)c(SC(C)C)s2)c(C(=O)O)c1-c1ccc(NS(C)(=O)=O)cc1` [Compound 124, 1-(4-(3,4-dichlorophenyl)-5-(isopropylthio)thiazol-2-yl)-3-methyl-4-(4-(methylsulfonamido)phenyl)-1H-pyrazole-5-carboxylic acid] is more than 50 µM; for `Cc1nn(-c2nc(-c3ccc(Cl)c(Cl)c3)c(SC(C)C)s2)c(C(=O)O)c1-c1cccc(NS(C)(=O)=O)c1` [Compound 125, 1-(4-(3,4-dichlorophenyl)-5-(isopropylthio)thiazol-2-yl)-3-methyl-4-(3-(methylsulfonamido)phenyl)-1H-pyrazole-5-carboxylic acid] it is more than 50 µM; for `COCCn1cc(-c2c(C)nn(-c3nc(-c4ccc(Cl)c(Cl)c4)c(SC(C)C)s3)c2C(=O)O)cn1` [Compound 126, 2-(4-(3,4-dichlorophenyl)-5-(isopropylthio)thiazol-2-yl)-2′-(2-methoxyethyl)-5-methyl-4,4′-bi(2H-pyrazole)-3-carboxylic acid] it is 10 to 25 µM.
The value for `Cc1nn(-c2nc(-c3ccc(Cl)c(Cl)c3)c(SC(C)C)s2)c(C(=O)O)c1-c1cccc2cc[nH]c12` [Compound 127, 1-(4-(3,4-dichlorophenyl)-5-(isopropylthio)thiazol-2-yl)-4-(1H-indol-7-yl)-3-methyl-1H-pyrazole-5-carboxylic acid] was 5 to 10 µM.
The value for `Cc1nn(-c2nc(-c3ccc(Cl)c(Cl)c3)c(SC(C)C)s2)cc1-c1cccc2cc[nH]c12` [Compound 128, 2-(4-(1H-indol-7-yl)-3-methyl-1H-pyrazol-1-yl)-4-(3,4-dichlorophenyl)-5-(isopropylthio)thiazole] was 10 to 25 µM; that for `CCn1cc(-c2c(C)nn(-c3nc(-c4ccc(Cl)c(Cl)c4)c(SC(C)C)s3)c2C(=O)O)cn1` [Compound 129, 2-(4-(3,4-dichlorophenyl)-5-(isopropylthio)thiazol-2-yl)-2′-ethyl-5-methyl-4,4′-bi(2H-pyrazole)-3-carboxylic Acid] was 5 to 10 µM.
As for `COCCNC(=O)c1c(-c2cccc(C)c2)c(C)nn1-c1nc(-c2ccc(Cl)c(Cl)c2)c(SC(C)C)s1` [Compound 130, 1-(4-(3,4-dichlorophenyl)-5-(isopropylthio)thiazol-2-yl)-N-(2-methoxyethyl)-3-methyl-4-m-tolyl-1H-pyrazole-5-carboxamide], the EC50 was more than 50 µM.
The value for `Cc1ccccc1-c1c(C)nn(-c2nc(-c3ccc(Cl)c(Cl)c3)c(SC(C)C)s2)c1C(=O)N1CCC(CN)CC1` [Compound 131, (4-(aminomethyl)piperidin-1-yl)(1-(4-(3,4-dichlorophenyl)-5-(isopropylthio)thiazol-2-yl)-3-methyl-4-o-tolyl-1H-pyrazol-5-yl)methanone] was 1 to 5 µM; that for `COc1cncc(-c2c(C)nn(-c3nc(-c4ccc(Cl)c(Cl)c4)c(SC(C)C)s3)c2C(=O)O)c1` [Compound 132, 1-(4-(3,4-dichlorophenyl)-5-(isopropylthio)thiazol-2-yl)-4-(5-methoxypyridin-3-yl)-3-methyl-1H-pyrazole-5-carboxylic acid] was 10 to 25 µM.
The value for `Cc1nn(-c2nc(-c3ccc(Cl)c(Cl)c3)c(SC(C)C)s2)c(C(=O)O)c1-c1cnn(CC(C)C)c1` [Compound 133, 2-(4-(3,4-dichlorophenyl)-5-(isopropylthio)thiazol-2-yl)-2′-isobutyl-5-methyl-4,4′-bi(2H-pyrazole)-3-carboxylic acid] was 10 to 25 µM.
The figure for `CNc1cc(-c2c(C)nn(-c3nc(-c4ccc(Cl)c(Cl)c4)c(SC(C)C)s3)c2C(=O)O)ccn1` [Compound 134, 1-(4-(3,4-dichlorophenyl)-5-(isopropylthio)thiazol-2-yl)-3-methyl-4-(2-(methylamino)pyridin-4-yl)-1H-pyrazole-5-carboxylic acid] is 10 to 25 µM.
With `Cc1nn(-c2nc(-c3ccc(Cl)c(Cl)c3)c(SC(C)C)s2)c(C(=O)O)c1-c1cnn(C(=O)N(C)C)c1` [Compound 135, 1-(4-(3,4-dichlorophenyl)-5-(isopropylthio)thiazol-2-yl)-1′-(dimethylcarbamoyl)-3-methyl-1H,1′H-[4,4′-bipyrazole]-5-carboxylic acid], the EC50 fell in the range of 25 to 50 µM.

What is called EC50 is the concentration giving half of the maximal effect.
